One data set can be described thus: in vitro. The note with it: dog, MDCK cells.
Data set [1] can be described thus: Cytotoxicity against MDCK cells incubated for 48 hrs by MTT assay. In kind it is toxicity, cell-based, Canis lupus familiaris. The note with it: dog. For orientation: Formazan colour is commonly taken as a measure of viable cells.
The target of data set [2] is Polymerase acidic protein (Influenza A virus (A/Puerto Rico/8/1934(H1N1))) (UniProt P03433). The experiment in a line: Inhibition of Influenza A virus N-terminal domain of PA endonuclease using 6FAM-TGGCAATATCAGCTCCACA-MGBNFQ as fluorescent substrate by FRET analysis.
The subject of data set [3] is Influenza A virus. The experiment in a line: Antiviral activity against influenza A virus A/WSN/33 (H1N1) infected in MDCK cells at 20 uM pre-infected with virus for 1 hr followed by compound addition and measured after 24 hrs post infection. In kind it is functional, organism-based.
In data set [4] the test system is Influenza A virus. The experiment in a line: Antiviral activity against influenza A virus H3N2(JX/312) infected in MDCK cells assessed as inhibition of cytopathic effect incubated for 48 hrs by MTT assay. In kind it is functional, organism-based. On the technique in general: Damage to the host cells serves as the signal in cytopathic effect assays.
For data set [5], the system named is Influenza A virus. The experiment in a line: Antiviral activity against influenza A virus H5N1(A/Duck/Guangdong/212/2004) infected in MDCK cells assessed as inhibition of cytopathic effect incubated for 48 hrs by MTT assay. In kind it is functional, organism-based.
Data set [6] concerns Influenza A virus. Nature of the data set: Antiviral activity against influenza A virus Flu (B/Lee/1940) infected in MDCK cells assessed as inhibition of cytopathic effect incubated for 48 hrs by MTT assay. In kind it is functional, organism-based.
Data set [7] in a line: Metabolic stability in mouse liver microsomes assessed as intrinsic clearance at 10 uM incubated for 5 mins in presence of NADPH by LC-MS/MS analysis. In kind it is ADME, Microsome. The note with it: read-out: CLH. Background: Liver microsomes are a subcellular fraction often used to study metabolism.
Data set [8] in a line: Metabolic stability in mouse liver microsomes assessed as half life at 10 uM incubated for 5 mins in presence of NADPH by LC-MS/MS analysis. In kind it is ADME, Microsome.
Data set [9] can be described thus: Metabolic stability in mouse plasma assessed as compound remaining measured after 120 mins by LC-MS/MS analysis. The note with it: read-out: Stability. In kind it is ADME, cell-free.
A short description of data set [10]: Metabolic stability in mouse plasma assessed as compound remaining measured after 30 mins by LC-MS/MS analysis. The note with it: read-out: Stability. In kind it is ADME, cell-free.
Data set [11] is described as follows: Metabolic stability in mouse plasma assessed as compound remaining measured after 90 mins by LC-MS/MS analysis. In kind it is ADME, cell-free. The note with it: read-out: Stability.
Data set [12] can be described thus: Metabolic stability in mouse plasma assessed as compound remaining measured after 60 mins by LC-MS/MS analysis. In kind it is ADME, cell-free. The note with it: read-out: Stability.
In data set [13] the test system is Influenza A virus. Nature of the data set: Antiviral activity against Influenza A A/WSN/33 (H1N1) infected in BALB/c mouse at 10 mg/kg/day, ip administered twice daily for 5 days starting from 1 hrs post infection and measured daily for 14 days. In kind it is functional, organism-based. The note with it: time 5.0 day.

The structures appear in SMILES notation. The source made the active and inactive calls.

As to `COC(=O)[C@@H]1Cc2cc(O)c(O)cc2[C@H](Cc2ccc(O)c(O)c2)N1C(=O)c1cccc([N+](=O)[O-])c1`, the selectivity ratio in the data set “in vitro” was over 5.3. In addition, the CC50 (commonly the concentration giving 50% cytotoxicity) at 48 h in data set [1] is over 101 µM.
In the same order, the values of `COC(=O)[C@@H]1Cc2cc(O)c(O)cc2[C@H](Cc2ccc(O)c(O)c2)N1C(=O)c1ccccc1Br` are over 29.5 and over 101 µM.
As for `COC(=O)[C@@H]1Cc2cc(O)c(O)cc2[C@H](Cc2ccc(O)c(O)c2)N1C(=O)c1ccc(Cl)cc1Cl`, the selectivity ratio in the data set “in vitro” is over 21.2. The same compound showed a CC50 at 48 h in data set [1] of over 101 µM.
On to `COC(=O)COC(=O)[C@@H]1Cc2cc(O)c(O)cc2[C@H](Cc2ccc(O)c(O)c2)N1C(=O)c1ccccc1Cl`, for which, in “in vitro”, the selectivity ratio was 67.1. Moreover, the CC50 at 48 h in data set [1] turned out to be 163 µM.
For `O=C(O[C@@H]1Cc2c(O)cc(O)cc2O[C@@H]1c1cc(O)c(O)c(O)c1)c1cc(O)c(O)c(O)c1` [EPIGALOCATECHIN GALLATE], in that order: over 3.3 and over 100 µM.
In the same order, the values of `O=C(Nc1ccccc1)[C@@H]1Cc2cc(O)c(O)cc2[C@H](Cc2ccc(O)c(O)c2)N1C(=O)c1ccccc1Cl` are 10.8 and 169 µM.
In the same order, the values of `CCCCCCC(=O)N1[C@H](C(=O)OC)Cc2cc(O)c(O)cc2[C@@H]1Cc1ccc(O)c(O)c1` are 5.1 and 84.3 µM.
As for `COC(=O)[C@@H]1Cc2cc(O)c(O)cc2[C@H](Cc2ccc(O)c(O)c2)N1C(=O)c1ccccc1`, the selectivity ratio in “in vitro” was found to be 29.7. In addition, in data set [2], the inhibition result was “Dose-Dependent Effect”. The midpoint of cytotoxicity in [1], the CC50 at 48 h, lay at 157 µM.
As for `COC(=O)[C@@H]1Cc2cc(O)c(O)cc2[C@H](Cc2ccc(O)c(O)c2)N1C(=O)c1ccc(C(F)(F)F)cc1`, in the data set “in vitro”, the selectivity ratio is over 10.8. In data set [1], the CC50 at 48 h was over 101 µM.
For `COC(=O)[C@@H]1Cc2cc(O)c(O)cc2[C@H](Cc2ccc(O)c(O)c2)N1C(=O)c1ccc(Br)cc1`, in that order: over 25.5 and over 101 µM.
For `COC(=O)[C@@H]1Cc2cc(O)c(O)cc2[C@H](Cc2ccc(O)c(O)c2)N1C(=O)c1ccccc1C(F)(F)F`, in that order: over 11.1 and over 101 µM.
In the case of `COC(=O)[C@@H]1Cc2cc(O)c(O)cc2[C@H](Cc2ccc(O)c(O)c2)N1C(=O)c1cccc(Br)c1`, the selectivity ratio in the data set “in vitro” was over 26.4. Further, in data set [1], the half-maximal cytotoxic concentration (CC50) at 48 h was over 101 µM.
With `CC(=O)N[C@H]1[C@H]([C@H](O)[C@H](O)CO)OC(C(=O)O)=C[C@@H]1NC(=N)N`, in the data set with Influenza A virus [3], the result was inactive.
Consider `CN(C)C(=O)[C@@H]1Cc2cc(O)c(O)cc2[C@H](Cc2ccc(O)c(O)c2)N1C(=O)c1ccccc1Cl`, for which, in “in vitro”, the selectivity ratio was found to be 10.8. This compound also returned a half-maximal cytotoxic concentration (CC50) at 48 h in [1] of 137 µM.
For `COC(=O)[C@@H]1Cc2cc(O)c(O)cc2[C@H](Cc2ccc(O)c(O)c2)N1C(=O)c1c(Cl)cccc1Cl`, in that order: 15.5 and 81.6 µM.
Take `COC(=O)[C@@H]1Cc2cc(O)c(O)cc2[C@H](Cc2ccc(O)c(O)c2)N1C(=O)c1cccc(Cl)c1`: the selectivity ratio in “in vitro” was determined as 25.3. The midpoint of cytotoxicity in data set [1], the CC50 at 48 h, lay at 61.1 µM.
Turning to `COC(=O)[C@@H]1Cc2cc(O)c(O)cc2[C@H](Cc2ccc(O)c(O)c2)N1C(=O)c1ccccc1Cl`, the selectivity ratio in “in vitro” came out at 49.3. Besides, the 50% effective concentration (EC50) (in general, the concentration that produces a half-maximal response) was found to be 0.92 µM in the data set with Influenza A virus [4], 2.36 µM in the data set on Influenza A virus [5] and 0.86 µM in the data set on Influenza A virus [6]. Further, half-maximal cytotoxicity in [1] (CC50 at 48 h) was put at 89.8 µM.
Take `O=C(Nc1ccncc1)[C@@H]1Cc2cc(O)c(O)cc2[C@H](Cc2ccc(O)c(O)c2)N1C(=O)c1ccccc1Cl`: the selectivity ratio in “in vitro” came to 101. Further, the concentration giving a half-maximal response (EC50) in the data set on Influenza A virus [4] was found to be 0.95 µM; with Influenza A virus [5], 2.85 µM; with Influenza A virus [6], 0.82 µM. In data set [1], this compound yielded a half-maximal cytotoxic concentration (CC50) at 48 h of 203 µM.
In the case of `COC(=O)CNC(=O)[C@@H]1Cc2cc(O)c(O)cc2[C@H](Cc2ccc(O)c(O)c2)N1C(=O)c1ccccc1Cl`, the selectivity ratio in “in vitro” was determined as 36.8. This compound displayed a CC50 at 48 h in data set [1] of 143 µM.
In the same order, the values of `CCOC(=O)[C@@H]1Cc2cc(O)c(O)cc2[C@H](Cc2ccc(O)c(O)c2)N1C(=O)c1ccccc1Cl` are 30.7 and 98.5 µM.
Take `O=C(Oc1ccccc1)[C@@H]1Cc2cc(O)c(O)cc2[C@H](Cc2ccc(O)c(O)c2)N1C(=O)c1ccccc1Cl`: in “in vitro”, the selectivity ratio stood at 52.1. The 50% cytotoxic concentration (CC50) at 48 h in data set [1] turned out to be 70.3 µM.
In the same order, the values of `COC(=O)[C@@H]1Cc2cc(O)c(O)cc2[C@H](Cc2ccc(O)c(O)c2)N1C(=O)c1ccc(Cl)cc1` are 34.5 and 87.4 µM.
As for `CN1CCc2cc(O)c(O)cc2C1Cc1ccc(O)c(O)c1` (racemic), the selectivity ratio in “in vitro” is over 5.4. This compound came in with a half-maximal cytotoxic concentration (CC50) at 48 h in data set [1] of over 200 µM.
In the same order, the values of `COC(=O)[C@@H]1Cc2cc(O)c(O)cc2[C@H](Cc2ccc(O)c(O)c2)N1C(=O)c1cccc(F)c1` are 25.8 and 73.7 µM.
Take `O=C1c2c(O)c(=O)ccn2N([C@@H]2c3ccccc3SCc3c2ccc(F)c3F)[C@@H]2COCCN12` [BALOXAVIR]: in “in vitro”, the selectivity ratio was over 11700. For the same compound, the 50% cytotoxic concentration (CC50) at 48 h in [1] was over 100 µM.
In the same order, the values of `C=CC(=O)N1[C@H](C(=O)OC)Cc2cc(O)c(O)cc2[C@@H]1Cc1ccc(O)c(O)c1` are 8.9 and 47.5 µM.
Consider `COC(=O)[C@@H]1Cc2cc(O)c(O)cc2[C@H](Cc2ccc(O)c(O)c2)N1C(=O)c1ccc(F)cc1`, for which the selectivity ratio in “in vitro” was over 33.6. Besides, the half-maximal cytotoxic concentration (CC50) at 48 h in data set [1] was over 101 µM.
Regarding `COC(=O)[C@@H]1Cc2cc(O)c(O)cc2[C@H](Cc2ccc(O)c(O)c2)N1C(=O)c1ccccc1[N+](=O)[O-]`, the selectivity ratio in the data set “in vitro” was over 9.2. The compound also gave a CC50 at 48 h in [1] of over 101 µM.
`COC(=O)[C@@H]1Cc2cc(O)c(O)cc2[C@H](Cc2ccc(O)c(O)c2)N1C(=O)C1CCCCC1`: in “in vitro”, the selectivity ratio is 3.4. In data set [1], the CC50 at 48 h was found to be 64.5 µM.
In the same order, the values of `COC(=O)[C@@H]1Cc2cc(O)c(O)cc2[C@H](Cc2ccc(O)c(O)c2)N1C(=O)c1ccc2ccccc2c1` are 15.6 and 45.2 µM.
For `O=C(O)[C@@H]1Cc2cc(O)c(O)cc2[C@H](Cc2ccc(O)c(O)c2)N1C(=O)c1ccccc1Cl`, in that order: 5.4 and 103 µM.
Turning to `O=C(O)Cc1ccccc1Nc1c(Cl)cccc1Cl` [DICLOFENAC], the microsomal CLint at 10 µM in data set [7] is 112 µL/min/mg. For the same compound, in data set [8], the half-life (as a rule, the time needed for the level to fall by half in the phase considered) at 10 µM stood at 12.1 min.
With `COC(=O)[C@@H]1Cc2cc(O)c(O)cc2[C@H](Cc2ccc(O)c(O)c2)N1C(=O)c1ccccc1F`, the selectivity ratio in “in vitro” amounted to 29.7. The same compound gave a CC50 at 48 h in [1] of 82.3 µM.
For `COC(=O)[C@@H]1Cc2cc(O)c(O)cc2[C@H](Cc2ccc(O)c(O)c2)N1C(=O)c1cccc(C(F)(F)F)c1`, in that order: over 11.8 and over 101 µM.
For the compound `CC(C)[N+](C)(CCOC(=O)C1c2ccccc2Oc2ccccc21)C(C)C` [PROPANTHELINE BROMIDE], the remaining at 2 h in data set [9] was 2%. For the same compound, in data set [10], the remaining at 0.5 h was found to be 45.5%. Besides, the remaining at 1.5 h in [11] amounted to 10.3%. The remaining at 1 h in data set [12] was 18.2%.
Take `CCC(CC)[C@H](NC(C)=O)[C@@H]1[C@H](O)[C@@H](C(=O)O)C[C@H]1NC(=N)N` [PERAMIVIR ANHYDROUS]: the selectivity ratio in “in vitro” is over 19.2. The values for the 50% effective concentration (EC50) in the data set on Influenza A virus [4], with Influenza A virus [5] and with Influenza A virus [6] were 215 µM, 1.06 µM and 1.66 µM, respectively. Besides, the outcome in the data set with Influenza A virus [13] was Active. In addition, in data set [1], the half-maximal cytotoxic concentration (CC50) at 48 h was over 101 µM.

(Values after ChEMBL document CHEMBL5316264, “Identification of N- and C-3-Modified Laudanosoline Derivatives as Novel Influenza PAN Endonuclease Inhibitors” (J Med Chem, 2023).)
